Assay results reported in ChEMBL document CHEMBL1201862, “PubChem BioAssay data set” (2004).
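Cells were grown in 96-well plates and exposed to each compound for 48 hours at five concentrations; endpoints were interpolated linearly between bracketing concentrations, or set to the highest concentration if not reached. GI50 marks 50% less growth.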 Active and inactive are the calls of the source. Cut-off read from the data, not from the text of the source: active = GI50 up to about 1.1 µM and inactive = higher.

Columns and labels:
Test in all cases: DTP human tumour cell line panel, 48 h
[1] = test system: A549
[2] = test system: CAKI-1
[3] = test system: HCT-15
[4] = test system: HL-60
[5] = test system: Hs-578T
[6] = test system: LOX IMVI
[7] = test system: M14
[8] = test system: MCF7
[9] = test system: MDA-N
[10] = test system: MOLT-4
[11] = test system: NCI-H23
[12] = test system: NCI-H522
[13] = test system: OVCAR-3
[14] = test system: RPMI-8226
[15] = test system: SNB-19
[16] = test system: SR
[17] = test system: TK-10
[18] = test system: U-251
[19] = test system: NCI-H460
[20] = test system: SF-539

SMILES | GI50 [1] | GI50 [2] | GI50 [3] | GI50 [4] | GI50 [5] | GI50 [6] | GI50 [7] | GI50 [8] | GI50 [9] | GI50 [10] | GI50 [11] | GI50 [12] | GI50 [13] | GI50 [14] | GI50 [15] | GI50 [16] | GI50 [17] | GI50 [18] | GI50 [19] | GI50 [20]
O=S(=O)(c1ccc(Br)cc1)N1CCN(S(=O)(=O)c2ccc(Br)cc2)CC1 | > 100 µM (inactive) | > 100 µM (inactive) | > 100 µM | > 100 µM (inactive) | > 100 µM (inactive) | > 100 µM (inactive) | > 100 µM (inactive) | > 100 µM (inactive) | > 100 µM (inactive) | 1.71 µM (inactive) | > 100 µM (inactive) | > 100 µM (inactive) | > 100 µM (inactive) | > 100 µM (inactive) | > 100 µM (inactive) | 0.0703 µM (active) | > 100 µM (inactive) | > 100 µM (inactive) |  | 
O=C(O)C1C2CCC(O2)C1C(=O)Nc1cccc2cccnc12 (stereo not drawn) | > 100 µM (inactive) | > 100 µM (inactive) | > 100 µM |  | 93.5 µM (inactive) | > 100 µM (inactive) | > 100 µM (inactive) | > 100 µM (inactive) | > 100 µM (inactive) |  | > 100 µM (inactive) | 88.5 µM (inactive) | > 100 µM (inactive) | > 100 µM (inactive) | > 100 µM (inactive) | > 100 µM (inactive) | > 100 µM (inactive) | > 100 µM (inactive) | 55.5 µM (inactive) | 
CCCCCNc1nonc1N | > 100 µM (inactive) | > 100 µM (inactive) | > 100 µM |  | > 72.8 µM (inactive) | > 100 µM (inactive) | > 100 µM (inactive) | > 100 µM (inactive) | > 100 µM (inactive) | > 100 µM (inactive) | > 100 µM (inactive) | > 100 µM (inactive) | > 100 µM (inactive) | > 100 µM (inactive) | > 100 µM (inactive) | > 100 µM (inactive) | > 100 µM (inactive) | > 100 µM (inactive) | > 100 µM (inactive) | > 100 µM (inactive)
Cn1c2ccccc2c(=O)c2cccc(C(=O)NCC(=O)O)c21 | > 100 µM (inactive) |  | > 100 µM |  | > 100 µM (inactive) | 71.3 µM (inactive) | > 100 µM (inactive) | > 100 µM (inactive) | > 100 µM (inactive) | > 100 µM (inactive) | > 100 µM (inactive) |  | > 100 µM (inactive) | > 100 µM (inactive) | > 100 µM (inactive) | > 100 µM (inactive) | > 100 µM (inactive) | > 100 µM (inactive) | > 100 µM (inactive) | > 100 µM (inactive)
NNC(=O)CCC(NS(=O)(=O)c1ccc(Cl)cc1)C(=O)NN (stereo not drawn) | > 100 µM (inactive) | > 100 µM (inactive) | > 100 µM | > 100 µM (inactive) | > 100 µM (inactive) | > 100 µM (inactive) | > 100 µM (inactive) | > 100 µM (inactive) | > 100 µM (inactive) | > 100 µM (inactive) | > 100 µM (inactive) | > 100 µM (inactive) | > 100 µM (inactive) |  | > 100 µM (inactive) | > 100 µM (inactive) | > 100 µM (inactive) | > 100 µM (inactive) | > 100 µM (inactive) | > 100 µM (inactive)
COc1ccc(Nc2nnc(-c3nsc4ccccc34)s2)cc1 | 27.4 µM (inactive) | 54.5 µM (inactive) | 62.8 µM | > 70.1 µM (inactive) | 21.9 µM (inactive) | 41.1 µM (inactive) | > 100 µM (inactive) | 81.3 µM (inactive) | 76 µM (inactive) | 46.5 µM (inactive) | > 100 µM (inactive) |  | 63 µM (inactive) | 22.9 µM (inactive) | > 53.1 µM (inactive) | 39.9 µM (inactive) | > 49.3 µM (inactive) | > 47.1 µM (inactive) | 15 µM (inactive) | 31.8 µM (inactive)
COc1ccc(/N=N/C(=N/NC(=O)c2ccccc2)c2ccc(N(CCC#N)CCC#N)cc2C)cc1 | 38.2 µM (inactive) | > 100 µM (inactive) | 26.1 µM | 32.6 µM (inactive) | 23.4 µM (inactive) |  | 50.5 µM (inactive) | 18.5 µM (inactive) | 4.7 µM (inactive) | 49.5 µM (inactive) | 25.5 µM (inactive) | 10.7 µM (inactive) | 17.7 µM (inactive) | > 100 µM (inactive) | 50.9 µM (inactive) | 6.19 µM (inactive) | > 100 µM (inactive) | 60.5 µM (inactive) | 23.1 µM (inactive) | 19.3 µM (inactive)
